Results published in patent US12319672B2, “Alpha-D-galactopyranoside derivatives” (Idorsia Pharmaceuticals Ltd, priority 2019, dated 2025).

Experiments:
[1] = molecular target: human Gal-3 (hGal-3) (Homo sapiens (Human), UniProt P17931); test: Competitive binding assay: binding of biotinylated hGal-3 to microplate-adsorbed asialofetuin (ASF); settings: Activity on hGal-3; mean values of several measurements
Method in brief: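 For hGal-1, a variant with all six cysteines replaced by serines is preferred. Either galectin, biotinylated at 300-1000 ng/mL, competes with compound for microplate-bound ASF over 3 h at 4° C; peroxidase/ABTS detection gives IC50, averaged.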

[2] = molecular target: human Gal-1 (hGal-1); test: Competitive binding assay: binding of biotinylated hGal-1 to microplate-adsorbed asialofetuin (ASF); settings: Activities on hGal-1; mean values of several measurements
Method in brief: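 Spectrophotometric readout (streptavidin-peroxidase, ABTS) of biotinylated galectin retained on ASF-coated wells. Biotinylated hGal-1 or hGal-3, 300-1000 ng/mL, co-incubated with test compound 3 h at 4° C, then washed. Mean IC50 from repeat runs.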

Sequence of human Gal-1 (hGal-1) (P09382 2-135 limits assumed): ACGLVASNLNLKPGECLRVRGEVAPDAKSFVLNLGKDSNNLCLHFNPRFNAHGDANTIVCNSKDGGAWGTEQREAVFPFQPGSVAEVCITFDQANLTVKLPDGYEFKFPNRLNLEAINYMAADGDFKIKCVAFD
Sequence of human Gal-3 (hGal-3) (P17931 whole entry): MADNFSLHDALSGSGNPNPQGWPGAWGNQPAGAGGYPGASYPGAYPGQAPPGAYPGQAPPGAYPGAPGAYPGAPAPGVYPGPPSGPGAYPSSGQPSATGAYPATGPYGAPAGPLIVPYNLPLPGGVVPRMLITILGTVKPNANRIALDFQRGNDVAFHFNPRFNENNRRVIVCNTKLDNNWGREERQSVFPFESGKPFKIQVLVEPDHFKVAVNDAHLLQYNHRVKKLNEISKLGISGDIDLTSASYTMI

| IC50 [1] | IC50 [2] | SMILES |
| --- | --- | --- |
| 440 nM | 47800 nM | CO[C@@H]1[C@@H](n2cc(-c3ccc(Br)c(F)c3F)nn2)[C@@H](O)[C@@H](CO)O[C@@H]1Cc1cc(C2CCCCC2)on1 [Ex 1.173] |
| 900 nM | 18800 nM | CO[C@@H]1[C@@H](n2cc(-c3ccc(Cl)c(F)c3)nn2)[C@@H](O)[C@@H](CO)O[C@@H]1Cc1cc(C2CCCCC2)on1 [Ex 1.174] |
| 310 nM | 4760 nM | CO[C@@H]1[C@@H](n2cc(-c3ccc(F)c(F)c3F)nn2)[C@@H](O)[C@@H](CO)O[C@@H]1Cc1cc(C2CCCCC2)on1 [Ex 1.175] |
| 870 nM | > 100000 nM | CO[C@@H]1[C@@H](n2cc(-c3cc(F)c(Cl)c(F)c3)nn2)[C@@H](O)[C@@H](CO)O[C@@H]1Cc1cc(C2CCCCC2)on1 [Ex 1.176] |
| 180 nM | 64800 nM | CO[C@@H]1[C@@H](n2cc(-c3ccc(C)c(F)c3F)nn2)[C@@H](O)[C@@H](CO)O[C@@H]1Cc1cc(C2CCCCC2)on1 [Ex 1.177] |
| 980 nM | 10300 nM | CO[C@@H]1[C@@H](n2cc(-c3cc(F)cc(Cl)c3)nn2)[C@@H](O)[C@@H](CO)O[C@@H]1Cc1cc(C2CCCCC2)on1 [Ex 1.178] |
| 150 nM | 11000 nM | CO[C@@H]1[C@@H](n2cc(-c3cc(F)c(C)c(F)c3)nn2)[C@@H](O)[C@@H](CO)O[C@@H]1Cc1cc(C2CCOCC2)on1 [Ex 1.179] |
| 180 nM | 4930 nM | CO[C@@H]1[C@@H](n2cc(-c3ccc(C)c(F)c3)nn2)[C@@H](O)[C@@H](CO)O[C@@H]1Cc1cc(C2CCOCC2)on1 [Ex 1.180] |
| 56 nM | 8040 nM | CO[C@@H]1[C@@H](n2cc(-c3ccc(Cl)c(F)c3F)nn2)[C@@H](O)[C@@H](CO)O[C@@H]1Cc1cc(C2CCOCC2)on1 [Ex 1.181] |
| 82 nM | 4730 nM | CO[C@@H]1[C@@H](n2cc(-c3ccc(Br)c(F)c3F)nn2)[C@@H](O)[C@@H](CO)O[C@@H]1Cc1cc(C2CCOCC2)on1 [Ex 1.182] |
| 280 nM | 5290 nM | CO[C@@H]1[C@@H](n2cc(-c3ccc(Cl)c(F)c3)nn2)[C@@H](O)[C@@H](CO)O[C@@H]1Cc1cc(C2CCOCC2)on1 [Ex 1.183] |
| 130 nM | 1180 nM | CO[C@@H]1[C@@H](n2cc(-c3ccc(F)c(F)c3F)nn2)[C@@H](O)[C@@H](CO)O[C@@H]1Cc1cc(C2CCOCC2)on1 [Ex 1.184] |
| 190 nM | 1450 nM | CO[C@@H]1[C@@H](n2cc(-c3cc(F)c(Cl)c(F)c3)nn2)[C@@H](O)[C@@H](CO)O[C@@H]1Cc1cc(C2CCOCC2)on1 [Ex 1.185] |
| 85 nM | 6200 nM | CO[C@@H]1[C@@H](n2cc(-c3ccc(C)c(F)c3F)nn2)[C@@H](O)[C@@H](CO)O[C@@H]1Cc1cc(C2CCOCC2)on1 [Ex 1.186] |
| 450 nM | 5980 nM | CO[C@@H]1[C@@H](n2cc(-c3cc(F)cc(Cl)c3)nn2)[C@@H](O)[C@@H](CO)O[C@@H]1Cc1cc(C2CCOCC2)on1 [Ex 1.187] |
| 180 nM | 7620 nM | CO[C@@H]1[C@@H](n2cc(-c3cc(F)c(C)c(F)c3)nn2)[C@@H](O)[C@@H](CO)O[C@@H]1Cc1cc(C(C)(C)C)on1 [Ex 1.188] |
| 170 nM | 5430 nM | CO[C@@H]1[C@@H](n2cc(-c3ccc(C)c(F)c3)nn2)[C@@H](O)[C@@H](CO)O[C@@H]1Cc1cc(C(C)(C)C)on1 [Ex 1.189] |
| 71 nM | 4610 nM | CO[C@@H]1[C@@H](n2cc(-c3ccc(Cl)c(F)c3F)nn2)[C@@H](O)[C@@H](CO)O[C@@H]1Cc1cc(C(C)(C)C)on1 [Ex 1.190] |
| 150 nM | 3650 nM | CO[C@@H]1[C@@H](n2cc(-c3ccc(Br)c(F)c3F)nn2)[C@@H](O)[C@@H](CO)O[C@@H]1Cc1cc(C(C)(C)C)on1 [Ex 1.191] |

| IC50 [1] | IC50 [2] | SMILES |
| --- | --- | --- |
| 200 nM | 1880 nM | CO[C@@H]1[C@@H](n2cc(-c3ccc(Cl)c(F)c3)nn2)[C@@H](O)[C@@H](CO)O[C@@H]1Cc1cc(C(C)(C)C)on1 [Ex 1.192] |
| 120 nM | 1250 nM | CO[C@@H]1[C@@H](n2cc(-c3ccc(F)c(F)c3F)nn2)[C@@H](O)[C@@H](CO)O[C@@H]1Cc1cc(C(C)(C)C)on1 [Ex 1.193] |
| 180 nM | 3510 nM | CO[C@@H]1[C@@H](n2cc(-c3cc(F)c(Cl)c(F)c3)nn2)[C@@H](O)[C@@H](CO)O[C@@H]1Cc1cc(C(C)(C)C)on1 [Ex 1.194] |
| 60 nM | 3330 nM | CO[C@@H]1[C@@H](n2cc(-c3ccc(C)c(F)c3F)nn2)[C@@H](O)[C@@H](CO)O[C@@H]1Cc1cc(C(C)(C)C)on1 [Ex 1.195] |
| 400 nM | 2430 nM | CO[C@@H]1[C@@H](n2cc(-c3cc(F)cc(Cl)c3)nn2)[C@@H](O)[C@@H](CO)O[C@@H]1Cc1cc(C(C)(C)C)on1 [Ex 1.196] |
| 110 nM | 2190 nM | CO[C@@H]1[C@@H](n2cc(-c3cc(F)c(F)c(F)c3)nn2)[C@@H](O)[C@@H](CO)O[C@@H]1Cc1cc(C2CCN(S(=O)(=NC(C)C)C(C)C)CC2)on1 (some centres unmarked) [Ex 1.197] |
| 47 nM | 3590 nM | CCOC(=O)N1CCC(c2cc(C[C@H]3O[C@H](CO)[C@H](O)[C@H](n4cc(-c5ccc(Br)c(F)c5F)nn4)[C@H]3OC)no2)CC1 [Ex 1.198] |
| 52 nM | 5990 nM | CCOC(=O)N1CCC(c2cc(C[C@H]3O[C@H](CO)[C@H](O)[C@H](n4cc(-c5cc(F)c(Cl)c(F)c5)nn4)[C@H]3OC)no2)CC1 [Ex 1.199] |
| 120 nM | 1510 nM | CCOC(=O)N1CCC(c2cc(C[C@H]3O[C@H](CO)[C@H](O)[C@H](n4cc(-c5cc(F)cc(Cl)c5)nn4)[C@H]3OC)no2)CC1 [Ex 1.200] |
| 67 nM | 2940 nM | CCOC(=O)N1CCC(c2cc(C[C@H]3O[C@H](CO)[C@H](O)[C@H](n4cc(-c5ccc(C)c(F)c5)nn4)[C@H]3OC)no2)CC1 [Ex 1.201] |
| 33 nM | 3950 nM | CCOC(=O)N1CCC(c2cc(C[C@H]3O[C@H](CO)[C@H](O)[C@H](n4cc(-c5cc(F)c(C)c(F)c5)nn4)[C@H]3OC)no2)CC1 [Ex 1.202] |
| 26 nM | 1780 nM | CCOC(=O)N1CCC(c2cc(C[C@H]3O[C@H](CO)[C@H](O)[C@H](n4cc(-c5ccc(Cl)c(F)c5F)nn4)[C@H]3OC)no2)CC1 [Ex 1.203] |
| 41 nM | 17300 nM | CC(=O)O[C@@H]1[C@@H](n2cc(-c3ccc(C)c(F)c3F)nn2)[C@@H](O)[C@@H](CO)O[C@@H]1Cc1cc(C(C)(C)C)on1 [Ex 1.204] |
| 41 nM | 9010 nM | Cc1ccc(-c2cn([C@H]3[C@@H](O)[C@@H](CO)O[C@H](Cc4cc(C(C)(C)C)on4)[C@@H]3O)nn2)c(F)c1F [Ex 1.205] |
| 83 nM | 1340 nM | CO[C@@H]1[C@@H](n2cc(-c3cc(F)c(F)c(F)c3)nn2)[C@@H](O)[C@@H](CO)O[C@@H]1Cc1cc(C(C)(C)C)no1 [Ex 1.206] |
| 110 nM | 1160 nM | CO[C@@H]1[C@@H](n2cc(-c3cc(F)c(F)c(F)c3)nn2)[C@@H](O)[C@@H](CO)O[C@@H]1Cc1cc(C(C)(C)CO)no1 [Ex 1.207] |
| 130 nM | 1640 nM | CCOC(=O)CC(C)(C)c1cc(C[C@H]2O[C@H](CO)[C@H](O)[C@H](n3cc(-c4cc(F)c(F)c(F)c4)nn3)[C@H]2OC)on1 [Ex 1.208] |
| 260 nM | 3660 nM | CO[C@@H]1[C@@H](n2cc(-c3cc(F)c(F)c(F)c3)nn2)[C@@H](O)[C@@H](CO)O[C@@H]1Cc1cc(C2(OC)CCCC2)no1 [Ex 1.209] |
